33 compounds from patent publication US20250059164A1, “IRAK DEGRADERS AND USES THEREOF” (Kymera Therapeutics, Inc., priority 2023, published 2025) can be followed below.

The DC50 is the midpoint of the concentration-degradation curve. A low value points to degradation at low concentration.

Each structure is given as a SMILES string. A value given as a limit tells only on which side of the number the result lay.

In this test the target is T1, IRAK4 (Homo sapiens, UniProt Q9NWZ3).
T1 construct: endogenous in cells; host or cells: OCI-LY10
T1 sequence (Q9NWZ3 1-460): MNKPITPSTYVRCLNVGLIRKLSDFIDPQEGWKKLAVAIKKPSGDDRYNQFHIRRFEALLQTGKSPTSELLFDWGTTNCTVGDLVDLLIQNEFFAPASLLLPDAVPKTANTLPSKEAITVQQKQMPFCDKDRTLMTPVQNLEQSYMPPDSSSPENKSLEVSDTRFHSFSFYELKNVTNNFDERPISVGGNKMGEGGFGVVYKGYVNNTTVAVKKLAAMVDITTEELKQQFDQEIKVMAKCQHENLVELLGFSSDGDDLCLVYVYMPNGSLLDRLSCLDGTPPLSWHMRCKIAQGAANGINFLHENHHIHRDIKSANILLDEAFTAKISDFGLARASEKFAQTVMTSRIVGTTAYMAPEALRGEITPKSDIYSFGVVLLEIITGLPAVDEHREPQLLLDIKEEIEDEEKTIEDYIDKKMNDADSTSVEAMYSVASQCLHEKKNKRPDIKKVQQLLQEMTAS
Briefly: IRAK4 MSD degradation in OCI-LY10. The class given is cell-based. The following applies: OCI-LY10 cells, 24 hrs, Meso Scale Discovery. Here is the method: Degradation of IRAK4 in OCI-LY10 was quantitatively measured using Meso Scale Discovery technology. […] Compounds were then added to the assay plates with a final top concentration of 1 to 10 μM in a 1:3 dilution series with total of 8 doses. The assay plates were then incubated for 4 to 24 hours at 37° C. under 5% CO2. […] To prepare MSD assay plates (Meso Scale Discovery Catalog number L15XA-3), the plates were coated with 2 μg/mL capture antibody (mouse Anti-IRAK4 antibody [2H9], ab119942) in PBS, at 40 μL/well. […] Cell lysates were then added to MSD assay plates and the plates were incubated at room temperature for 1 hour. The plates were then washed 3 times with 150 μL/well TBST buffer and 25 μL/well primary detection antibody (rabbit Anti-IRAK4 antibody [Y279], from Abcam. Catalog number ab32511, 1 μg/mL). The assay plates were then incubated at room temperature for 1 hour, washed 3 times with 150 μL/well TBST buffer and 25 μL/well secondary detection antibody, SULFO-TAG anti-rabbit antibody were added (anti-rabbit antibody from Meso Scale Discovery, Catalog number R32AB-1, 1 μg/mL). The assay plates were then incubated at room temperature for 1 hour, washed 3 times with 150 μL/well TBST buffer, and 150 μL/well MSD reading buffer (Meso Scale Discovery catalog number R92TC-2) was added. The plates were then analyzed by a MSD reader (Meso Scale Discovery, Model Quick Plex SQ 120). The data was then analyzed by software Prism 7.0 from GraphPad and the dose-depended IRAK4 degradation were fit using a three-parameter logistic equation to calculate DC50.
The letter codes for IRAK4 DC50 include: A (<0.01 μM); B (0.01 to <0.1 μM); C (0.1 to 0.2 μM); D (>0.2 μM) and E (not tested).
`Cn1c(=O)n(C2CCC(=O)NC2=O)c2cccc([C@H]3CCN(C[C@H]4CC[C@H](c5nc6cc(C(C)(C)O)c(NC(=O)c7cncc(C(F)(F)F)n7)cc6o5)CC4)CC3(F)F)c21` (single isomer, unassigned) [I-328] registered a DC50 of 10 to 100 nM.
To `COc1cc2nc([C@H]3CC[C@H](CN(C)[C@H]4CCN(c5cccc6c5n(C)c(=O)n6C5CCC(=O)NC5=O)C[C@H]4F)CC3)cn2cc1NC(=O)c1cncc(C(F)(F)F)n1` (single isomer, unassigned) [I-333] belongs less than 10 nM; to `CN(C[C@H]1CC[C@H](c2cn3cc(NC(=O)c4cncc(C(F)(F)F)n4)c(C(C)(C)O)cc3n2)CC1)[C@@H]1CCN(c2cccc3c2n(C)c(=O)n3C2CCC(=O)NC2=O)C[C@H]1F` (single isomer, unassigned) [I-334], less than 10 nM; to `CN(C[C@H]1CC[C@H](c2cn3cc(NC(=O)c4cncc(C(F)(F)F)n4)c(C(C)(C)O)cc3n2)CC1)[C@H]1CCN(c2cccc3c2n(C)c(=O)n3C2CCC(=O)NC2=O)C[C@@H]1F` (single isomer, unassigned) [I-335], less than 10 nM.
To `CN(C[C@H]1CC[C@H](c2cn3cc(NC(=O)c4cncc(C(F)(F)F)n4)c(C(C)(C)O)cc3n2)CC1)[C@H]1CCN(c2cccc3c2n(C)c(=O)n3C2CCC(=O)NC2=O)C[C@H]1F` (single isomer, unassigned) [I-336] belongs less than 10 nM.
As for `Cc1nn(C2CCC(=O)NC2=O)c2cccc([C@H]3CCN(C[C@H]4CC[C@H](n5cc6cc(NC(=O)c7cncc(C(F)(F)F)n7)ncc6n5)CC4)C[C@@H]3F)c12` (single isomer, unassigned) [I-341], the DC50 was in the range of 10 to 100 nM.
The figure for `CN(C[C@H]1CC[C@H](c2cn3cc(NC(=O)c4cncc(C(F)(F)F)n4)c(C(C)(C)O)cc3n2)CC1)[C@@H]1CCN(c2cccc3c2n(C)c(=O)n3C2CCC(=O)NC2=O)C[C@@H]1F` (single isomer, unassigned) [I-344] is less than 10 nM.
To `Cn1c(=O)n(C2CCC(=O)NC2=O)c2ccc([C@@H]3CCN(C[C@H]4CC[C@H](n5cc6cc(NC(=O)c7cncc(C(F)(F)F)n7)ccc6n5)CC4)C[C@H]3F)cc21` (single isomer, unassigned) [I-349] belongs more than 200 nM.
With `Cn1c(=O)n(C2CCC(=O)NC2=O)c2ccc([C@H]3CCN(C[C@H]4CC[C@H](n5cc6cc(NC(=O)c7cncc(C(F)(F)F)n7)ccc6n5)CC4)C[C@@H]3F)cc21` (single isomer, unassigned) [I-351], the DC50 was more than 200 nM.
To `Cn1nc(C2CCC(=O)NC2=O)c2cccc([C@H]3CCN(C[C@H]4CC[C@H](n5cc6cc(NC(=O)c7cncc(C(F)(F)F)n7)ncc6n5)CC4)C[C@@H]3F)c21` (single isomer, unassigned) [I-359] belongs 10 to 100 nM; to `Cn1c(=O)n(C2CCC(=O)NC2=O)c2ccc(F)c([C@@H]3CCN(C[C@H]4CC[C@H](n5cc6cc(NC(=O)c7cncc(C(F)(F)F)n7)ccc6n5)CC4)CC3(F)F)c21` (single isomer, unassigned) [I-376], less than 10 nM; to `Cn1c(=O)n(C2CCC(=O)NC2=O)c2ccc(F)c([C@H]3CCN(C[C@H]4CC[C@H](n5cc6cc(NC(=O)c7cncc(C(F)(F)F)n7)ccc6n5)CC4)CC3(F)F)c21` (single isomer, unassigned) [I-377], less than 10 nM.
To `Cn1nc(C2CCC(=O)NC2=O)c2cccc([C@@H]3CCN(C[C@H]4CC[C@H](n5cc6cc(NC(=O)c7cncc(C(F)(F)F)n7)ccc6n5)CC4)CC3(F)F)c21` (single isomer, unassigned) [I-379] belongs less than 10 nM; to `Cn1nc(C2CCC(=O)NC2=O)c2cccc([C@H]3CCN(C[C@H]4CC[C@H](n5cc6cc(NC(=O)c7cncc(C(F)(F)F)n7)ccc6n5)CC4)CC3(F)F)c21` (single isomer, unassigned) [I-380], less than 10 nM.
The figure for `Cn1c(=O)n([C@@H]2CCC(=O)NC2=O)c2cccc([C@@H]3CCN(C[C@H]4CC[C@H](n5cc6cc(NC(=O)c7cncc(C(F)(F)F)n7)ccc6n5)CC4)CC3(F)F)c21` (single isomer, unassigned) [I-381] is less than 10 nM; for `Cn1c(=O)n([C@H]2CCC(=O)NC2=O)c2cccc([C@@H]3CCN(C[C@H]4CC[C@H](n5cc6cc(NC(=O)c7cncc(C(F)(F)F)n7)ccc6n5)CC4)CC3(F)F)c21` (single isomer, unassigned) [I-385] it is less than 10 nM; for `Cn1nc([C@H]2CCC(=O)NC2=O)c2cccc([C@@H]3CCN(C[C@H]4CC[C@H](n5cc6cc(NC(=O)c7cncc(C#N)c7)c(C(C)(C)O)cc6n5)CC4)CC3(F)F)c21` (single isomer, unassigned) [I-417] it is less than 10 nM.
`O=C1CCC(Nc2cccc(N3CC(CO[C@H]4CCN(C[C@H]5CC[C@H](n6cc(NC(=O)c7cnn8ccc(N9C[C@H]%10C[C@@H]9CO%10)nc78)c(C(F)F)n6)CC5)C[C@@H]4F)C3)c2)C(=O)N1` (stereo partly drawn) [I-1] displayed a DC50 of 100 to 200 nM.
The figure for `CN(C[C@H]1CC[C@H](n2cc3cc(NC(=O)c4cccc(C(F)(F)F)n4)c(C(C)(C)O)cc3n2)CC1)[C@@H]1CCN(c2cccc3c2n(C)c(=O)n3C2CCC(=O)NC2=O)C[C@H]1F` (stereo partly drawn) [I-2] is less than 10 nM; for `CN1C(=O)CCC(n2c(=O)n(C)c3c(N4CC(N5CCN([C@H]6CC[C@H](n7cc(NC(=O)c8cnn9ccc(N%10C[C@H]%11C[C@@H]%10CO%11)nc89)c(C(F)F)n7)CC6)CC5)C4)c(F)ccc32)C1=O` (stereo partly drawn) [I-3] it is more than 200 nM; for `O=C1CCC(Nc2cccc(N3CC(CO[C@@H]4CCN(C[C@H]5CC[C@H](n6cc(NC(=O)c7cnn8ccc(N9C[C@H]%10C[C@@H]9CO%10)nc78)c(C(F)F)n6)CC5)C[C@@H]4F)C3)c2)C(=O)N1` (stereo partly drawn) [I-5] it is 10 to 100 nM.
To `Cn1c(=O)n(C2CCC(=O)NC2=O)c2cccc([C@@H]3CCN(C[C@H]4CC[C@H](n5cc6cc(NC(=O)c7cccc(C(F)(F)F)n7)c(C(C)(C)O)cc6n5)CC4)C[C@H]3F)c21` (stereo partly drawn) [I-7] belongs less than 10 nM; to `CN(C[C@H]1CC[C@H](n2cc3cc(NC(=O)c4cccc(C(F)(F)F)n4)c(C#N)cc3n2)CC1)[C@H]1CCN(c2cccc3c2n(C)c(=O)n3C2CCC(=O)NC2=O)C[C@H]1F` (stereo partly drawn) [I-8], less than 10 nM; to `CN(C[C@H]1CC[C@H](n2cc3cc(NC(=O)c4cccc(C(F)(F)F)n4)c(C#N)cc3n2)CC1)[C@H]1CCN(c2cccc3c2n(C)c(=O)n3C2CCC(=O)NC2=O)C[C@@H]1F` (stereo partly drawn) [I-9], less than 10 nM.
Turning to `CN(C[C@H]1CC[C@H](n2cc3cc(NC(=O)c4cccc(C(F)(F)F)n4)c(C#N)cc3n2)CC1)[C@@H]1CCN(c2cccc3c2n(C)c(=O)n3C2CCC(=O)NC2=O)C[C@@H]1F` (stereo partly drawn) [I-10], the DC50 was less than 10 nM.
`O=C1CCC(Nc2cccc(N3CC(CN4CCN(C[C@H]5CC[C@H](n6cc(NC(=O)c7cnn8ccc(N9C[C@H]%10C[C@@H]9CO%10)nc78)c(C(F)F)n6)CC5)CC4)C3)c2)C(=O)N1` (stereo partly drawn) [I-13] registered a DC50 of 10 to 100 nM.
The figure for `O=C1CCC(c2ccc(N3CC(N4CCN([C@H]5CC[C@H](n6cc(NC(=O)c7cnn8ccc(N9CCCC9)nc78)c(C(F)F)n6)CC5)CC4)C3)cc2Cl)C(=O)N1` (stereo partly drawn) [I-14] is less than 10 nM; for `O=C1CCC(Nc2cccc(N3CCN(C[C@H]4CC[C@H](n5cc6cc(NC(=O)c7cccc(C(F)(F)F)n7)ncc6n5)CC4)CC3)c2)C(=O)N1` (stereo partly drawn) [I-15] it is more than 200 nM; for `O=C1CCC(Nc2ccc(N3CC(CN4CCN(C[C@H]5CC[C@H](n6cc(NC(=O)c7cnn8ccc(N9C[C@H]%10C[C@@H]9CO%10)nc78)c(C(F)F)n6)CC5)CC4)C3)cc2Cl)C(=O)N1` (stereo partly drawn) [I-16] it is 10 to 100 nM.
The figure for `Cc1nn(C2CCC(=O)NC2=O)c2cccc(N3CC(O)(CN4CCN(C[C@H]5CC[C@H](n6cc(NC(=O)c7cnn8ccc(N9C[C@H]%10C[C@@H]9CO%10)nc78)c(C(F)F)n6)CC5)CC4)C3)c12` (stereo partly drawn) [I-19] is less than 10 nM; for `CN(C[C@H]1CC[C@H](n2cc(NC(=O)c3cnn4ccc(N5CCCC5)nc34)c(C(F)F)n2)CC1)[C@H]1CCN(c2cccc3c2n(C)c(=O)n3C2CCC(=O)NC2=O)C[C@@H]1F` (stereo partly drawn) [I-22] it is less than 10 nM.
Take `CN(C[C@H]1CC[C@H](n2cc(NC(=O)c3cnn4ccc(N5CCCC5)nc34)c(C(F)F)c2)CC1)[C@@H]1CCN(c2cccc3c2n(C)c(=O)n3C2CCC(=O)NC2=O)C[C@@H]1F` (stereo partly drawn) [I-23]: the DC50 is less than 10 nM.
To `C[C@H]1CN(c2ccn3ncc(C(=O)Nc4cn([C@H]5CC[C@H](CN(C)[C@H]6CCN(c7cccc8c7n(C)c(=O)n8C7CCC(=O)NC7=O)C[C@H]6F)CC5)nc4C(F)F)c3n2)CCO1` (stereo partly drawn) [I-24] belongs less than 10 nM.
